Reference: US5385888A, “Class I MHC modulation or surface receptor activity” (The Regents of the University of California, priority 1993, dated 1995)
Where a SMILES comes first, the peptide text is derived from it.

What was measured:
[1] = tested on: rat adipocytes; format: cell-based
Experimental: (§1) Preparation of Adipocytes--The procedure has been described in detail previously. Briefly, male Wistar rats (100-150 g) were decapitated, and the epididymal fat pads removed and minced with scissors into KRHB (Krebs-Ringer/HEPES/Bovine serum albumin (BSA) buffer: 80 mM NaCl, 4.7 mM KCl, 2.5 mM CaCl2, 1.2 mM MgSO4, 50 mM HEPES, 5% BSA (Sigma, radioimmunoassay grade), pH 7.2) containing 5 mM D-glucose and 1 mg/ml collagenase (type I, Worthington) and digested (1 hr, 37° C.) with gentle shaking (250 cycles per minute). The adipocytes were washed five times in KRHB (each wash in a volume ten times the cell volume). The adipocyte layer was finally diluted with KRHB to a 10% (v/v) suspension as estimated by the volume of packed cells (lipocrit).
Glucose uptake in vitro--The uptake of [^14 C]glucose (D-[U-^14 C]glucose, Amersham, (300 Ci/mol)) by isolated rat adipocytes was measured as follows unless otherwise stated: 50 μl adipocyte cell suspension was pipetted into "Nunc-Immuno tube minisorp" (Nunc, Denmark) and preincubated at 37° C. with gentle shaking (225 cycles per minute) for 30 min. Hormones and peptides were added in 50 μl KRHB and incubated for 30 min at 37° C. Before addition to cells, all solutions were neutralized to pH 7.2. [^14 C]glucose tracer (~100,000 dpm) was added and the incubation continued for another 20 minutes at 37° C. The assay was terminated by centrifugation of 100 μl sample on top of 250 μl silicone oil (Thomas Scientific) in 500 μl tubes in a microfuge (10,000×g) for 1 min. The tube was cut just below the adipocyte layer and the amount of radioactivity in the adipocytes determined by scintillation counting. The precise concentration of [^14 C]glucose was calculated from total counts added.

[2] = target: T1, purified human IR (Homo sapiens, UniProt P06213); experiment: Tyrosine kinase activity of purified IR (autophosphorylation); format: biochemical
T1 construct: The product was a tetramer with two heavy chains, each ~130 kDa, and two light chains, each ~90 kDa; from tissue; host or cells: human placenta
Experimental: The purified human IR and the cloned cytoplasmic kinase domain (IRKD) have been described (Ellis et al., (1988) Virology 62:1634-39; Roth et al., (1986) J. Biol. Chem. 261:3753-57). Briefly, the human IR was purified from placenta by immunoaffinity columns, using monoclonal antibodies and binding of IR to wheat germ agglutinin. The product was a tetramer with two heavy chains, each ~130 kDa, and two light chains, each ~90 kDa. […] When peptide was used, it was added in 5.0 μl, the volume adjusted to 20 μl by adding buffer, and the mixture incubated (1 hr, 4° C.). After incubation, 10 μl of a solution containing 2.5 μCi ^32 P-labeled ATP (3,000 Ci/mmol; γ-labeled; Amersham) 50 mM HEPES, pH 7.6, 150 mM NaCl, 0.1% Triton X-100, 37.5 μM unlabeled ATP, 15 mM MgCl2, and 6 mm MnCl2 was added to a final volume of 30 μ l. The mixture was then incubated for 30 min. at 24° C. After incubation, 15 μl sample buffer was added, and the sample was boiled for 5 min., and run on 10% SDS-PAGE overnight. The gel was dried, and autoradiograms processed with an exposure time of 5-10 hr. For quantitative estimates the β-subunit band of IR and the IRKD bands were cut out and counted dry (Cerenkov) in a scintillation counter.

[3] = target: T2, EGFR (Rattus norvegicus, UniProt G3V6K6); experiment: Cell-associated 125I-labeled EGF on rat adipocytes; format: binding
T2 construct: male Wistar rats (100-150 g) were decapitated, and the epididymal fat pads removed; endogenous in cells; host or cells: freshly isolated epididymal adipocytes of male Wistar rats
Experimental: as §1
Cell-associated ^125 I-labeled EGF--50 μl adipocyte cell suspension was pipetted into "Nunc-Immuno tube minisorp" (Nunc, Denmark) and preincubated at 37° C. with gentle shaking (225 cycles per minute) for 30 min. […] The assay was terminated by centrifugation of 75 μl sample as described above for glucose uptake, and the cell-associated as well as the free ^125 I-labeled EGF was determined by γ-counting. […] The data were calculated as specific cell-associated ^125 I-labeled EGF and the maximal value was in each experiment set to 100%.

[4] = tested on: rats; experiment: Blood glucose levels in whole rats after i.v. injection; format: in vivo, rat; details: insulin alone 10 μg/kg i.v.
Experimental: The effect of D^k -(61-85) in whole rats was determined. […] All animals were starved 16-20 hrs. prior to experimentation. Each determination was based on results as obtained from 42 rats, where the same rats were used in the four treatment schedules. The schedules were a control, a peptide by itself, insulin by itself, and insulin plus peptide. […] The peptide, at about 20 min., the blood glucose had dropped to about 65% of its original value and then slowly rose back to about the original value at about 90 min. and was maintained about the same level.

For CC[C@H](C)[C@H](NC(=O)[C@H](CCC(N)=O)NC(=O)[C@@H](NC(=O)[C@H](CCC(=O)O)NC(=O)[C@H](CCCNC(=N)N)NC(=O)[C@@H](N)CCC(=O)O)[C@@H](C)O)C(=O)N[C@@H](C)C(=O)N[C@@H](CCCCN)C(=O)NCC(=O)N[C@@H](CC(N)=O)C(=O)N[C@@H](CCC(=O)O)C(=O)N[C@@H](CCC(N)=O)C(=O)N[C@@H](CO)C(=O)N[C@@H](Cc1ccccc1)C(=O)N[C@@H](CCCNC(=N)N)C(=O)N[C@H](C(=O)N[C@@H](CC(=O)O)C(=O)N[C@@H](CC(C)C)C(=O)N[C@@H](CCCNC(=N)N)C(=O)N[C@H](C(=O)N[C@@H](CC(C)C)C(=O)N[C@@H](CC(C)C)C(=O)N[C@@H](CCCNC(=N)N)C(=O)N[C@@H](Cc1ccc(O)cc1)C(=O)N[C@@H](Cc1ccc(O)cc1)C(=O)O)[C@@H](C)O)C(C)C [D^k-(61-85)] (H-ERETQIAKGNEQSFRVDLRTLLRYY-OH), the EC50 [1] was 10 to 15 µM.
With “ACTH-(1-24): human ACTH-(1-24), routine control peptide, Peninsula Laboratories” the “Substrate for IR tyrosine Kinase” value [2] was “None of the control peptides (e.g. ACTH-(1-24) are substrates”.
With “EGF: epidermal growth factor (mouse), Collaborative Research” the “Glucose uptake above basal” value ([1]; EGF alone) was ~ 50% and the “Apparent affinity of specific cell-associated EGF” value [3] was “low nanomolar range”.
In the case of PDGF, the “Effect on glucose uptake in adipocytes” value ([1]; PDGF alone) is reported as “no effect”.
With “TGFα: TGFα (rat), Peninsula Laboratories” the “[14C]glucose uptake above basal” value ([1]; 50 nM TGFα alone) was ~ 50%.
In the case of “insulin: unlabeled porcine insulin (NOVO)”, the EC50 ([2]; insulin as stimulus) is reported as roughly 0.003 µM and the “Blood glucose course compared with peptide alone” value [4] is reported as “A similar result”.
